Source: PMC12814168, “Fast, Bright, and Reversible Fluorescent Labeling of Rhodamine-Binding Proteins” (Journal of the American Chemical Society, 2025)

Key:
[1] = Spectral properties: absolute quantum yield, extinction coefficient, brightness; type: physicochemical
Method: Serially fluorophore dilutions (0 – 3 μM) were prepared in activity buffer in presence or absence […]
Measurements were performed in 200 μL volumes in clear-bottom non-binding […]
recorded on the Spark20M microplate reader (Tecan). Following baseline correction, the absorbance was plotted against the dye concentration and the data were fitted linearly. Path […]
(§1) coefficients were calculated via the Lambert-Beer law (Equation 1).
Absolute quantum yields were determined at room temperature using a Hamamatsu Quantaurus-QY spectrometer (C11347 model). Rhodamine dyes (1 μM) were tested with and without excess […]
Samples were prepared in 800 μL glass vials
Quantum yield represent as mean ± standard deviation from three technical replicates. The brightness was thereafter calculated using Equation 5. […]

SiR-tag [2] = molecular target: T1, SiR-tag; experiment: Fluorescence intensity titration of 20 nM SiR with serial protein dilutions, 50 mM HEPES, 50 mM NaCl, pH 7.3 with BSA, 25 °C, 4 independent measurements.; type: binding; conditions: read-out: K D (SiR), SiR-tag; SD, n = 4
T1 construct: 2 + PROSS8 background combined with P57M/F58Y/R60L and G63N/F64K/D65N/M66H; His10-TEV
From the text: 4 Bioluminescent Rho-tag and far-red SiR-tag. A) Schematic representation of direct excitation (left) or bioluminescence (BRET, right) of Rho-tag/TMR. B) AlphaFold2 (AF2) model of RhoLuc (N-Rho-tag^1‑64-GSG-cpNLuc^67/68-GS-Rho-tag^67‑158-C). cpNLuc^67/68 was inserted into the 64/67 site of Rho-tag. Tertiary structures are represented as colored cartoons and surface. The TMR ligand presented as yellow sticks. 3-Methoxyfurimazine (3MF) was modeled into the structure by aligning a crystal structure of NLuc (PDB-ID7SNT) to the AF model and is represented as blue sticks. pLDDT: 93.88. C) Bioluminescence profile of RhoLuc (dark blue, insertion), NLuc-Rho-tag (light blue, terminal fusion), or NLuc (gray). […] The fluorescence emission spectra were recorded upon the addition of Nano-Glo substrate (Promega 1:1000). BRET ratio (in brackets) is given as I 593/I 459. […] The fluorescence emission spectrum of 50 nM dye was recorded in the presence and absence of 20 μM protein. […]
SGCAA medium was used for induction and cells were grown at 30 °C, 250 rpm for 20 h. […] Samples were filtered through 5 mL round-bottom tubes with cell strainer caps (Falcon) and analyzed directly by FACS. […]
PMT voltages were set based on negative controls (no protein expression). Gates were applied for FSC, SSC, and fluorescence; signals >10³ (bilirubin or rhodamine dyes) were considered positive, background ≤10². […]

Rho-tag = molecular target: T2, Rho-tag (Chlorobaculum tepidum, UniProt Q8KFZ1, A66M/D121K/D126E/E36V/E70D/F125Y/F62Y/G107D/G67E/H40T/K51V/M64F/N138A/Q25R/S152V/S33N/S65D/V17Q/V87I); experiment: Fluorescence intensity titration of SiR with serial Rho-tag dilutions, 50 mM HEPES, 50 mM NaCl, pH 7.3 with BSA, 25 °C.; type: binding; conditions: SD, n = 3
T2 construct: gene CT0179; His10-TEV, recombinant from E. coli
T2 sequence (Q8KFZ1 entry or part of it with the stated changes): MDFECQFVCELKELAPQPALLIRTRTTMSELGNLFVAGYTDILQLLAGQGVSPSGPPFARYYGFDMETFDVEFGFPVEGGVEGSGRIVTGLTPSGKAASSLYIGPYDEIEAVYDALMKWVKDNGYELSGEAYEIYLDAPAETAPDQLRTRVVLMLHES
Method: electroporation buffer, aliquoted (12 x 50 µL) on ice, and used immediately for electroporation with 1–5 µg DNA precipitated DNA. Cells were transferred to pre-chilled 0.2 cm gap electroporation cuvettes (Bio-Rad), and electroporated using a Gene Pulser Xcell (0.54 kV, 25 µF, infinite resistance, exponential decay). Cells were recovered in 2 mL YPDS at 30 °C, shaking for 1 h and afterwards expanded in 100 mL SDCAA at 30 °C for 2 days.
YSD protein expression, staining and sorting
regions were amplified via KOD PCR reaction using primers containing unique barcodes (NGS adaptor ligation oligos, Eurofins Genomics) analyzed by NGS sequencing (Illumina technology, Eurofins Genomics). The NGS results were analyzed using a custom-build pipeline as described previously. […] Alternatively, plasmid DNA was transformation into E.cloni 10G and single colonies were analyzed by Sanger sequencing (Eurofins). […]
and 1 (fully bound dye). The dissociation constants KD were determined by fitting a single-site […]

SiR-tag [3] = experiment: Fluorescence emission increase (FI/FI0) of SiR upon binding to SiR-tag; type: biochemical; conditions: 50 nM dye, with vs without 20 μM protein
Method: The thermal stability of Rho-tag variants was assessed using nano differential scanning fluorimetry (nanoDSF) on a Prometheus NT48 (NanoTemper Technologies). Protein samples (100 µM in activity buffer) were subjected to a thermal gradient from 20° C to 95° C at 1 °C / min.
The intrinsic fluorescence ratio (350 / 330 nm) of tryptophan / tyrosine residues was monitored, and the melting temperature (TM) was determined as the inflection point of this ratio curve. Each sample was analyzed in technical duplicate (N=2), and results are reported as mean ± standard […]
Fluorescence emission spectra
To evaluate fluorescence turn-on or quenching (F I/FI0), rhodamine dyes (2 – 50 nM) were incubated with or without excess Rho-tag (20 μM) in activity buffer containing 0.5% BSA (w/v).
Measurements were performed in black 384-well plates (Greiner) using the Spark20M microplate reader (Tecan) in technical replicates.
FI/FI0 was defined as the ratio of fluorescence intensity with protein to that without at the emission […]
recorded on the Spark20M microplate reader (Tecan). Following baseline correction, the absorbance was plotted against the dye concentration and the data were fitted linearly. […]
as §1
Absolute quantum yields were determined at room temperature using a Hamamatsu Quantaurus-QY spectrometer (C11347 model). […]

[4] = with 20 µM Rho-tag (TMR, JF549) or SiR-tag (SiR, JF646)

SMILES: CN(C)c1ccc2c(c1)[Si](C)(C)c1cc(N(C)C)ccc1C21OC(=O)c2ccccc21 [SiR, silicon rhodamine]
- Absolute quantum yield Φ ([1]; HaloTag7-bound): 0.546 ± 0.018
- Brightness ε × Φ ([1]; HaloTag7-bound): 068 ± 1 M-1cm-1 × 103
- Extinction coefficient ε ([1]; HaloTag7-bound): 125 ± 15 M-1cm-1 × 103
- Brightness ε × Φ ([1]; buffer): 067 ± 2 M-1cm-1 × 103
- Extinction coefficient ε ([1]; buffer): 120 ± 22 M-1cm-1 × 103
- Absolute quantum yield Φ ([1]; buffer (unbound dye)): 0.562 ± 0.003
- Absolute quantum yield Φ [1, 4]: 0.649 ± 0.012
- Brightness ε × Φ [1, 4]: 105 ± 1 M-1cm-1 × 103
- Extinction coefficient ε [1, 4]: 162 ± 30 M-1cm-1 × 103
- Kd (SiR-tag [2]): 0.048 µM
- Kd (Rho-tag): 6.5 µM
- Fluorescence increase FI/FI0 upon binding to SiR-tag (SiR-tag [3]): 13 fold
